From patent US20190075787A1, “COMPOSITIONS AND METHODS FOR CROP DEFENSE” (AdvanSix Resins & Chemicals LLC, priority 2017, published 2019)

Experiments:
[1] = Hansen Solubility Parameters of solvents; assay type: physicochemical
Source text: As is known in the art, Hansen Solubility Parameters can be used to predict the effectiveness of a solvent. […] Thus, one skilled in the art would not expect the caprolactam-derived solvents to be as effective as NMP and other commonly used solvents.

[2] = Herbicide comparative solubility: saflufenacil dissolved in each solvent; assay type: physicochemical; details: room temperature; vials of 20, 30, 40 and 50 wt. % saflufenacil
Procedure: (§1) The solubility of the herbicide saflufenacil was determined for thirteen solvents. Three of the solvents were caprolactam-derived solvents in accordance with this disclosure. The remaining ten were comparative solvents. The solubility of saflufenacil was evaluated for each solvent by preparing four, 2 ml vials containing 20 wt. %, 30 wt. %, 40 wt. % and 50 wt. % of saflufenacil. To prepare the 20 wt. % vial, 0.040 g of saflufenacil was added to 0.160 ml of solvent. To prepare the 30 wt. % vial, 0.060 g of saflufenacil was added to 0.140 ml of solvent. To prepare the 40 wt. % vial, […] of saflufenacil was added to 0.120 ml of solvent. To prepare the 50 wt. % vial, 0.100 g of saflufenacil was added to 0.100 ml of solvent. The vials were capped and swirled at room temperature until no change in solubility was observed. […] Solvents 1-3 are in accordance with the present disclosure. Solvents 4-13 are comparative solvents.

[3] = Insecticide comparative solubility: bifenthrin dissolved in each solvent; assay type: physicochemical; details: room temperature; vials of 20, 30, 40 and 50 wt. % bifenthrin
[4] = Fungicide comparative solubility: tebuconazole dissolved in each solvent; assay type: physicochemical; details: room temperature; vials of 20, 30, 40 and 50 wt. % tebuconazole
Procedure: as §1, with “observed. Test samples including the fungicide tebuconazole were prepared as described above for Example 1 for saflufenacil.” for “observed.”, “As in Table 1 above, solvents” for “Solvents”, “disclosure and solvents” for “disclosure. Solvents”

[5] = general statement, no test described; cited from earlier work
[6] = general statement, no test described; cited from earlier work; remark: listed apart in the source

| SMILES | maximum weight percentage of saflufenacil dissolved in each solvent [2] | maximum weight percentage of bifenthrin dissolved in each solvent [3] | maximum weight percentage of tebuconazole dissolved in each solvent [4] | further results |
| --- | --- | --- | --- | --- |
| COC(=O)CCCCC(=O)N(C)C [Solvent 7, N,N-dimethyladipamide methyl ester] |  |  |  | Hansen Solubility Parameters: Dispersion [1]: 17.2; Hansen Solubility Parameters: Hydrogen Bonding [1]: 9.3; Hansen Solubility Parameters: Polarity [1]: 9.7 |
| CCN1CCCCCC1=O [Solvent 2] | 30% | 50% | 50% |  |
| CN1CCCC1=O [Solvent 4] | 50% | 50% | 50% |  |
| CCCCCCCCCC(=O)N(C)C [Solvent 6] | 30% | 30% | 30% |  |
| CN1CCCC1=O [Solvent 4, N-methyl-2-pyrrolidone] |  |  |  | reproductive toxin [5]: has been found to be a reproductive toxin |
| O=C1CCCCC1 [Solvent 9] | <20% | 50% | 40% |  |
| N#CCCN1CCCCCC1=O [Solvent 13] | <20% | <20% | <20% |  |
| CN1CCCCCC1=O [Solvent 1, N-methylcaprolactam] |  |  |  | carcinogen [6]: not considered to be either a reproductive toxin or a carcinogen; reproductive toxin [5]: not considered to be either a reproductive toxin or a carcinogen |
| CCCCN1CCCC1=O [Solvent 5] | 30% | 50% | 40% |  |
| CC1=CC(=O)CC(C)(C)C1 [isophorone] |  |  |  | carcinogen [6]: suspected carcinogen |
| CN1CCCCCC1=O [Solvent 1] | 40% | 40% | 50% |  |
| CCCCN1CCCCCC1=O [Solvent 3] | 20% | 40% | 40% |  |
| O=C1CCCCCN1 [caprolactam] |  |  |  | carcinogen [6]: has not been found to be, and is not expected to be, either a reproductive toxin or a carcinogen; reproductive toxin [5]: has not been found to be, and is not expected to be, either a reproductive toxin or a carcinogen |
